Measurements taken from the supplement of paper PMC10307832.

Tests used:
Assay in all cases: relative viability (nuclei count vs DMSO), 5 days (fraction); higher = more cells survive
[1] = compound: C[C@@H](N)c1ccc(C(=O)Nc2ccnc3[nH]ccc23)cc1 + CC(=O)c1c(C)c2cnc(Nc3ccc(N4CCNCC4)cn3)nc2n(C2CCCC2)c1=O [Palbociclib] (partner 0.5 µM)
How it was run: (§1)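 Cells from lung cancer lines were seeded into 1536-well plates and, one day later, dosed by pin tool. Treatments were either a single drug or a fixed dose of an anchor drug with five library-drug doses (not always all listed) in √10 steps. After 5 days, nuclei were stained in a one-step fixation (final 0.05% Triton X-100, 1% formaldehyde, 1 ug/ml Hoechst) and counted on 4× images, and relative viability is the treated-to-vehicle nuclei ratio, as the median of duplicate plates.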

Tanzisertib + Decitabine = compound: O[C@H]1CC[C@H](Nc2ncc3nc(Nc4c(F)cc(F)cc4F)n([C@H]4CCOC4)c3n2)CC1 [Tanzisertib] + Nc1ncn([C@H]2C[C@H](O)[C@@H](CO)O2)c(=O)n1 [Decitabine] (partner 2 µM)
How it was run: as §1

[2] = compound: C1CNCCC1C2=CC(=NN2)C3=CC=NC=C3 + O=C(c1cc(Cc2n[nH]c(=O)c3ccccc23)ccc1F)N1CCN(C(=O)C2CC2)CC1 [Olaparib] (partner 8 µM)
How it was run: as §1

[3] = compound: C[C@@H](N)c1ccc(C(=O)Nc2ccnc3[nH]ccc23)cc1 + COc1cc2c(Oc3ccc(NC(=O)C4(C(=O)Nc5ccc(F)cc5)CC4)cc3F)ccnc2cc1OCCCN1CCOCC1 [Foretinib] (partner 0.25 µM)
How it was run: as §1

| Cell Line | relative viability ([1]; first compound 0.04 µM) | relative viability ([1]; first compound 0.1265 µM) | relative viability ([1]; first compound 0.4 µM) | relative viability ([1]; first compound 1.265 µM) | relative viability ([1]; first compound 4 µM) | relative viability (Tanzisertib + Decitabine; first compound 0.08 µM) | relative viability (Tanzisertib + Decitabine; first compound 0.253 µM) | relative viability (Tanzisertib + Decitabine; first compound 0.8 µM) | relative viability (Tanzisertib + Decitabine; first compound 2.53 µM) | relative viability (Tanzisertib + Decitabine; first compound 8 µM) | relative viability ([2]; first compound 0.08 µM) | relative viability ([2]; first compound 0.8 µM) | relative viability ([2]; first compound 2.53 µM) | relative viability ([2]; first compound 8 µM) | relative viability ([3]; first compound 0.04 µM) | relative viability ([3]; first compound 0.1265 µM) | relative viability ([3]; first compound 0.4 µM) | relative viability ([3]; first compound 1.265 µM) | relative viability ([3]; first compound 4 µM) |
| --- | --- | --- | --- | --- | --- | --- | --- | --- | --- | --- | --- | --- | --- | --- | --- | --- | --- | --- | --- |
| NCI-H358 | 0.145 | 0.134 | 0.141 | 0.133 | 0.145 | 0.232 | 0.221 | 0.189 | 0.248 | 0.181 | 0.48 | 0.691 | 0.648 | 0.525 | 0.675 | 0.688 | 0.651 | 0.662 | 0.566 |
| NCI-H441 | 0.233 | 0.265 | 0.25 | 0.237 | 0.263 | 0.237 | 0.239 | 0.261 | 0.238 | 0.257 | 0.422 | 0.673 | 0.57 | 0.567 | 0.988 | 1.05 | 1.02 |  | 0.843 |
| NCI-H460 | 0.076 | 0.183 | 0.343 | 0.154 | 0.224 | 0.54 | 0.465 | 0.479 | 0.467 | 0.497 | 0.303 | 0.505 | 0.451 | 0.412 | 0.984 | 1.01 | 1 | 0.986 | 1 |
| NCI-H520 | 0.218 | 0.231 | 0.263 | 0.254 | 0.225 | 0.565 | 0.483 | 0.533 | 0.491 | 0.459 | 0.332 | 0.356 | 0.381 | 0.266 | 0.862 | 0.707 | 0.817 | 1.28 | 0.95 |
| NCI-H647 | 0.472 | 0.496 | 0.417 | 0.308 | 0.333 | 0.437 | 0.329 | 0.334 | 0.457 | 0.578 | 0.556 | 0.661 | 0.511 | 0.552 | 1.22 | 1.06 | 1.25 | 1.21 | 0.895 |
| NCI-H650 |  | 0.341 | 0.311 |  | 0.327 | 0.33 | 0.321 | 0.305 | 0.337 | 0.284 | 0.4 | 0.424 | 0.376 | 0.405 |  | 0.991 | 1.03 | 0.899 | 0.712 |
| NCI-H661 | 0.388 | 0.464 | 0.41 | 0.35 | 0.362 | 0.55 | 0.566 | 0.522 | 0.502 | 0.487 | 0.705 | 0.757 | 0.75 | 0.733 | 0.947 | 1.09 | 1.03 | 0.923 | 0.855 |
| NCI-H727 | 0.667 | 0.714 | 0.746 | 0.748 | 0.798 | 0.941 | 0.875 | 0.702 | 0.89 | 0.755 | 0.76 | 0.798 | 0.669 | 0.69 | 1.07 | 1.07 | 1.36 | 1.26 | 1.24 |
| NCI-H838 | 0.183 | 0.221 | 0.229 | 0.192 | 0.183 | 0.455 | 0.468 | 0.459 | 0.483 | 0.481 | 0.708 | 0.795 | 0.815 | 0.799 | 0.965 | 0.957 | 0.919 | 0.634 | 0.409 |
| NCI-H1355 | 0.441 | 0.422 | 0.403 | 0.427 | 0.393 | 0.374 | 0.388 | 0.369 | 0.388 | 0.361 | 0.704 | 0.727 | 0.792 | 0.792 | 1.01 | 1.02 | 1.09 | 1.1 | 0.924 |
| NCI-H1395 | 0.583 | 0.639 | 0.597 |  | 0.577 | 0.798 | 0.726 | 0.747 | 0.737 | 0.72 | 0.46 | 0.404 | 0.447 | 0.522 | 1.07 | 1.14 | 1.06 | 0.995 | 0.909 |
| NCI-H1437 | 0.335 | 0.315 | 0.386 | 0.369 | 0.482 | 0.622 | 0.572 | 0.606 | 0.629 | 0.533 | 0.636 | 0.644 | 0.679 | 0.642 | 1.29 | 1.35 | 1.35 | 1.37 | 1.35 |
| NCI-H1650 | 0.384 | 0.369 | 0.319 | 0.294 | 0.344 | 0.408 | 0.452 | 0.393 | 0.384 | 0.453 | 0.613 | 0.948 | 0.795 | 0.69 | 1.14 | 1.03 | 1.41 | 1.18 | 0.862 |
| NCI-H1651 | 0.509 | 0.567 | 0.554 | 0.601 | 0.567 | 0.615 | 0.66 | 0.474 | 0.591 | 0.537 | 0.174 | 0.202 | 0.191 | 0.176 | 0.883 | 0.908 | 0.882 | 0.987 | 0.782 |
